Laboratory results: patent US20230000870A1, “METHODS OF TREATING CANCER IN BIOMARKER-IDENTIFIED PATIENTS WITH INHIBITORS OF CYCLIN-DEPENDENT KINASE 7 (CDK7)” (Syros Pharmaceuticals, Inc., priority 2019, published 2023)

How the values were obtained:
HCC70 cells = assay: Inhibition of proliferation of HCC70 cells (CyQUANT Direct, 72 hour); assay type: cell-based, human; settings: read-out: Inhibition of Proliferation of HCC70 Cells (calculated IC50)
Description: HCC70 cells: HCC70 cells are a cell line derived from human triple negative breast cancer. Representative compounds of the invention were tested at different concentrations (from 4 μM to […]; 0.5 log serial dilutions) for their ability to inhibit the proliferation of HCC70 cells. Known CDK inhibitors dinaciclib or N-((1S,3R)-3-((5-chloro-4-(1H-indol-3-yl) pyrimidin-2-yl)amino)cyclohexyl)-5-((E)-4-(dimethylamino)but-2-enamido)picolinamide and triptolide were used as positive controls. Cells were grown in ATCC-formulated RPMI-1640 Medium (ATCC 30-2001)+10% FBS. The cells were cultured at 37° C. in a humidified chamber in the presence of 5% CO2. Proliferation assays were conducted over a 72 hour time period. CyQUANT® Direct Cell Proliferation Assay (Life Technologies, Chicago, Ill. USA) was used to assess the anti-proliferative effects of the compounds following manufacturer's directions and utilizing the reagents supplied with the CyQUANT® Direct Cell kit.

CDK2/Cyclin E1 complex = CDK2/Cyclin E1 complex (Homo sapiens, UniProt P24941); assay: CDK2 kinase inhibition assay (Caliper/LabChip EZ Reader); assay type: biochemical; settings: CDK2/Cyclin E1 0.5 nM, ATP 2 mM, 35 min at 27° C.
In short: (§1)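 Caliper/LabChip mobility-shift kinase assays at 27° C. CDK9/Cyclin T1 8 nM with 2 μM 5-FAM-CDK9tide, 10 mM MgCl2, 15 min; CDK12/Cyclin K 50 nM with 5-FAM-CDK9tide 2 μM, 2 mM MgCl2, 3 hr; CDK2/Cyclin E1 0.5 nM with 5-FAM-CDK7tide 2 μM, 2 mM MgCl2, 35 min; CDK7 35 min.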

[1] = molecular target: CDK7/Cyclin H/MAT1 complex (Homo sapiens, UniProt P50613); assay: CDK7 kinase inhibition assay (Caliper/LabChip EZ Reader); assay type: biochemical; settings: CDK7/Cyclin H/MAT1 6 nM, ATP 2 mM, 35 min at 27° C.
In short: as §1

CDK9/Cyclin T1 complex = CDK9/Cyclin T1 complex (Homo sapiens, UniProt P50750); assay: CDK9 kinase inhibition assay (Caliper/LabChip EZ Reader); assay type: biochemical; settings: CDK9/Cyclin T1 8 nM, ATP 2 mM, 15 min at 27° C.
In short: as §1

[2] = molecular target: T1, CDK12 (aa686-1082)/Cyclin K complex (Homo sapiens, UniProt Q9NYV4); assay: CDK12 kinase inhibition assay (Caliper/LabChip EZ Reader); assay type: biochemical; settings: CDK12 (aa686-1082)/Cyclin K 50 nM, ATP 2 mM, 3 hr at 27° C.
T1 construct: CDK12 (aa686-1082)/Cyclin K complex
In short: as §1

Chain of CDK7/Cyclin H/MAT1 complex (P50613 whole entry): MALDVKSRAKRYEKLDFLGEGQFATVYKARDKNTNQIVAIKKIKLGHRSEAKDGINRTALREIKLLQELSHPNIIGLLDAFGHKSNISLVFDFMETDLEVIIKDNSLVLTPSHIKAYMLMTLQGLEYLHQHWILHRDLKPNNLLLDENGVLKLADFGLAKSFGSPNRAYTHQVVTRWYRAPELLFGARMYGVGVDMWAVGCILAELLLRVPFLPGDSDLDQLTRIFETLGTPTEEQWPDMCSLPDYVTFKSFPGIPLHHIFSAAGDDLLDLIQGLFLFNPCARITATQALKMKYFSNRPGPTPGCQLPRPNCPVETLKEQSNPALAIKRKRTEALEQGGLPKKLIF
Chain of CDK7/Cyclin H/MAT1 complex (P51946 whole entry partner): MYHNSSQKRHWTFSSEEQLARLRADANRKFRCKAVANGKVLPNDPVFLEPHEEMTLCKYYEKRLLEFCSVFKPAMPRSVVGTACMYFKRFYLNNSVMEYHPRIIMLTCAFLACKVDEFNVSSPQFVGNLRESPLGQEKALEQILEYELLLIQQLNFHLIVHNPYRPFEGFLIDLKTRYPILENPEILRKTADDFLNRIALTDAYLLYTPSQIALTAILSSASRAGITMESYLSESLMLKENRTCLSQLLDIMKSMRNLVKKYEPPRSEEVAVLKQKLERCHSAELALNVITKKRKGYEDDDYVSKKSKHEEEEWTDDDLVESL
Chain of CDK7/Cyclin H/MAT1 complex (P51948 whole entry partner): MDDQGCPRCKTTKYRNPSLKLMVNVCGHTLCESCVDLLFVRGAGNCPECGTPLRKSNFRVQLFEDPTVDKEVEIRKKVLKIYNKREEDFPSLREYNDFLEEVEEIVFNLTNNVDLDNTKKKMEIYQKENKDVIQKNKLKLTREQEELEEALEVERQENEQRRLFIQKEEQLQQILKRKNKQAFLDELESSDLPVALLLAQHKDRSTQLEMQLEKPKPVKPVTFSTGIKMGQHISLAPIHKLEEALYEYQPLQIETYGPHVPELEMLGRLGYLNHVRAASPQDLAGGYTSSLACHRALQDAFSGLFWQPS
T1 sequence (Q9NYV4 686-1082): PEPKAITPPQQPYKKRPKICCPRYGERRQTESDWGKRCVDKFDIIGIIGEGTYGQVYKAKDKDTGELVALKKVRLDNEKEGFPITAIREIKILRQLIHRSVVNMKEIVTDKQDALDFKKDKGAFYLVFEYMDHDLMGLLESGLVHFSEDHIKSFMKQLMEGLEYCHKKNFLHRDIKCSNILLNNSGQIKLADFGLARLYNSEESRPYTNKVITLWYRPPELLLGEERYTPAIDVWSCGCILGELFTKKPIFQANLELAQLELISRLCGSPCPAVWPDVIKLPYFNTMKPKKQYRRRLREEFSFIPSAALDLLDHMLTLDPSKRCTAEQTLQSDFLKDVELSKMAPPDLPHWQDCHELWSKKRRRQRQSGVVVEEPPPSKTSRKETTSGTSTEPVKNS
T1 sequence (O75909 whole entry partner, the tested form may be a part): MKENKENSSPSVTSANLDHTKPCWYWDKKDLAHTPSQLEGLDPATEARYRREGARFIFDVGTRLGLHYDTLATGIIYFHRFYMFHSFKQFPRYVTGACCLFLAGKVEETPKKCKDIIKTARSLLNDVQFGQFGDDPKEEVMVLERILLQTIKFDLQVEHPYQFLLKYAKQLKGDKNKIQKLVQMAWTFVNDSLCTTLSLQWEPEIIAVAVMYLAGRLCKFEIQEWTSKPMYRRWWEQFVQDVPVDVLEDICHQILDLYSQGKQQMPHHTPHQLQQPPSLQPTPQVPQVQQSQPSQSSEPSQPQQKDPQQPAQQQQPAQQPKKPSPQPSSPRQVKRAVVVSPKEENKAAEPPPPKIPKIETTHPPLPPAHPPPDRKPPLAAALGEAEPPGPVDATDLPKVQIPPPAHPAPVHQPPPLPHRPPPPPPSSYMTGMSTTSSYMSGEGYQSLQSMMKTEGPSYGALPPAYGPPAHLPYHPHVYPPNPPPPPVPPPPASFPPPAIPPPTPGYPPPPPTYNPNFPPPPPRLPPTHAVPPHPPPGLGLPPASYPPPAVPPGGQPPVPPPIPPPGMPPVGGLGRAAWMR
Chain of CDK9/Cyclin T1 complex (P50750 whole entry): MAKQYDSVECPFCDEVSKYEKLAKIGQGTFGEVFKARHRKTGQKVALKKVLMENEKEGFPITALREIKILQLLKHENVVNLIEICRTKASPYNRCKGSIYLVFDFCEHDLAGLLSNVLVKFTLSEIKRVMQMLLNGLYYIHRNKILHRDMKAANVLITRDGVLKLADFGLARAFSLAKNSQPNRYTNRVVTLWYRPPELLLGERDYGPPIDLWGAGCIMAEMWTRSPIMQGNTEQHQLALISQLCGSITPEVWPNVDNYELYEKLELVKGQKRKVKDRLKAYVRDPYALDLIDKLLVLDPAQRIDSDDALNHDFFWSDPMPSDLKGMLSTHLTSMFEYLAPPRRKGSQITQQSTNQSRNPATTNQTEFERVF
Chain of CDK9/Cyclin T1 complex (O60563 whole entry partner): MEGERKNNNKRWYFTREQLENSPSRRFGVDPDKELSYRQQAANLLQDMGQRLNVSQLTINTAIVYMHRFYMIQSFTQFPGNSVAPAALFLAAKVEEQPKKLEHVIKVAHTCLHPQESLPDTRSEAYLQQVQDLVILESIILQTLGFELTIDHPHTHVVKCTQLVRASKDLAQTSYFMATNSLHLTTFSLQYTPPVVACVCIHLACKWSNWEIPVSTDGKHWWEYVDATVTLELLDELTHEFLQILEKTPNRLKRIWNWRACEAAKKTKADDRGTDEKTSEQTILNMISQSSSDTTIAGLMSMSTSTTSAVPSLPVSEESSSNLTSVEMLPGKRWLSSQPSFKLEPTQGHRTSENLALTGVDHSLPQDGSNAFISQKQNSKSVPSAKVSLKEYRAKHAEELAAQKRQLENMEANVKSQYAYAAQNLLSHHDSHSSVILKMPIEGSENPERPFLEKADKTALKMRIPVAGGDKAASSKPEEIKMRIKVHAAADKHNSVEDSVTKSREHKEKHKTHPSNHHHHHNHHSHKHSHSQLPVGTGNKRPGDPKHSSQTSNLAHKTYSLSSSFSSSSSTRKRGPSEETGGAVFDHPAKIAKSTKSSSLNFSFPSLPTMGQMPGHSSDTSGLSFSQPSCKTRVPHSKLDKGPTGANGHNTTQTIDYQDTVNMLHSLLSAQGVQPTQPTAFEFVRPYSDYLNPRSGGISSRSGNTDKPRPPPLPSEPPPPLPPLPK

| SMILES | IC50 (HCC70 cells) [µM] | IC50 (CDK2/Cyclin E1 complex) [µM] | IC50 [1] [µM] | IC50 (CDK9/Cyclin T1 complex) [µM] | IC50 [2] [µM] |
| --- | --- | --- | --- | --- | --- |
| CS(=O)(=O)c1c(C#N)ccc2c(-c3nc(NC4CCCNC4)ncc3Cl)c[nH]c12 (centres unmarked) [Compound 294] | < 0.1 | 0.2 to 5 | < 0.02 | 0.2 to 5 | 0.2 to 5 |
| COCn1cc(-c2nc(NC3CCCNC3)ncc2C(F)(F)F)c2cccc(C#N)c21 (centres unmarked) [Compound 295] | 1 to 5 | ≥ 5 | 0.02 to 0.2 | ≥ 5 | ≥ 5 |
| Cn1cc(-c2nc(NC3CCCNC3)ncc2C(F)(F)F)c2cccc(S(C)(=O)=O)c21 (centres unmarked) [Compound 296] | 1 to 5 | ≥ 5 | 0.02 to 0.2 | ≥ 5 | ≥ 5 |
| CNC(=O)c1ccc2c(-c3nc(NC4CCCNC4)ncc3C(F)(F)F)c[nH]c2n1 (centres unmarked) [Compound 297] | < 0.1 | 0.2 to 5 | < 0.02 | 0.2 to 5 | 0.2 to 5 |
| CCN1CCCC(Nc2ncc(C(F)(F)F)c(-c3c[nH]c4cc(S(C)(=O)=O)ccc34)n2)C1 (centres unmarked) [Compound 298] | 0.1 to 1 | 0.2 to 5 | < 0.02 | ≥ 5 | 0.2 to 5 |
| O=C(c1ccc2c(-c3nc(NC4CCCNC4)ncc3C(F)(F)F)c[nH]c2c1)N1CCC(O)(C(F)(F)F)C1 (centres unmarked) [Compound 299] | 1 to 5 | 0.2 to 5 | < 0.02 | 0.2 to 5 | 0.2 to 5 |
| O=C(c1ccc2c(-c3nc(NC4CCCNC4)ncc3C(F)(F)F)c[nH]c2c1)N1CCC(O)(C(F)(F)F)C1 (centres unmarked) [Compound 300] | 0.1 to 1 | 0.2 to 5 | < 0.02 | 0.2 to 5 | 0.2 to 5 |
| N#Cc1ccc2c(-c3nc(NC4CCCNC4)ncc3OC(F)F)c[nH]c2c1 (centres unmarked) [Compound 301] | 1 to 5 | ≥ 5 | 0.02 to 0.2 | ≥ 5 | ≥ 5 |
| O=C1CCN(C(=O)c2ccc3c(-c4nc(NC5CCCNC5)ncc4C(F)(F)F)c[nH]c3c2)C1 (centres unmarked) [Compound 302] | 0.1 to 1 | 0.2 to 5 | 0.02 to 0.2 | 0.2 to 5 | 0.2 to 5 |
| Cn1ccc(-c2ccc3c(-c4nc(NC5CCCNC5)ncc4C(F)(F)F)c[nH]c3c2)n1 (centres unmarked) [Compound 303] | 0.1 to 1 | 0.2 to 5 | < 0.02 | 0.2 to 5 | 0.2 to 5 |
| CNC(=O)c1cccc2c(-c3nc(NC4CCCNC4)ncc3C(F)(F)F)cn(COC)c12 (centres unmarked) [Compound 304] | 1 to 5 | ≥ 5 | ≥ 5 | ≥ 5 | ≥ 5 |
| FC(F)(F)Sc1cnc(NC2CCCNC2)nc1-c1c[nH]c2ccccc12 (centres unmarked) [Compound 305] | 1 to 5 | 0.2 to 5 | < 0.02 | 0.2 to 5 | 0.2 to 5 |
| O=C(O)c1ccc2c(-c3nc(NC4CCCNC4)ncc3C(F)(F)F)c[nH]c2c1 (centres unmarked) [Compound 306] | 0.1 to 1 | 0.2 to 5 | 0.02 to 0.2 | ≥ 5 | 0.2 to 5 |
| CNC(=O)c1cccc2c(-c3nc(NC4CCCNC4)ncc3C(F)(F)F)cn(C)c12 (centres unmarked) [Compound 307] | 1 to 5 | ≥ 5 | ≥ 5 | ≥ 5 | ≥ 5 |
| O=C(c1ccc2c(-c3nc(NC4CCCNC4)ncc3C(F)(F)F)c[nH]c2c1)N1CC(O)C(F)(F)C1 (centres unmarked) [Compound 308] | 0.1 to 1 | 0.2 to 5 | < 0.02 | 0.2 to 5 | 0.2 to 5 |
| CCC1(O)CCN(C(=O)c2ccc3c(-c4nc(NC5CCCNC5)ncc4C(F)(F)F)c[nH]c3c2)C1 (centres unmarked) [Compound 309] | 1 to 5 | ≥ 5 | 0.02 to 0.2 | ≥ 5 | 0.2 to 5 |
| Oc1ncccc1-c1ccc2c(-c3nc(NC4CCCNC4)ncc3C(F)(F)F)c[nH]c2c1 (centres unmarked) [Compound 310] | 0.1 to 1 | 0.2 to 5 | < 0.02 | ≥ 5 | 0.2 to 5 |
| Cc1c(-c2ccc3c(-c4nc(NC5CCCNC5)ncc4C(F)(F)F)c[nH]c3c2)c[nH]c(=O)c1C#N (centres unmarked) [Compound 311] | 1 to 5 | 0.2 to 5 | < 0.02 | 0.2 to 5 | 0.2 to 5 |
| FC(F)(F)c1cnc(NC2CCCNC2)nc1-c1c[nH]c2cc(-c3ccc4[nH]cnc4c3)ccc12 (centres unmarked) [Compound 313] | 0.1 to 1 | 0.2 to 5 | < 0.02 | 0.2 to 5 | 0.2 to 5 |
| NC(=O)c1cccc(-c2ccc3c(-c4nc(NC5CCCNC5)ncc4C(F)(F)F)c[nH]c3c2)c1 (centres unmarked) [Compound 314] | 0.1 to 1 | 0.2 to 5 | < 0.02 | 0.2 to 5 | 0.2 to 5 |
| OCc1cccc(-c2ccc3c(-c4nc(NC5CCCNC5)ncc4C(F)(F)F)c[nH]c3c2)n1 (centres unmarked) [Compound 316] | 0.1 to 1 | 0.2 to 5 | < 0.02 | ≥ 5 | 0.2 to 5 |
| OCc1cncc(-c2ccc3c(-c4nc(NC5CCCNC5)ncc4C(F)(F)F)c[nH]c3c2)c1 (centres unmarked) [Compound 318] | 0.1 to 1 | 0.2 to 5 | < 0.02 | 0.2 to 5 | 0.2 to 5 |
| Cn1cc(-c2ccc3c(-c4nc(NC5CCCNC5)ncc4C(F)(F)F)c[nH]c3c2)ccc1=O (centres unmarked) [Compound 321] | 0.1 to 1 | ≥ 5 | < 0.02 | ≥ 5 | 0.2 to 5 |
| OCc1ncccc1-c1ccc2c(-c3nc(NC4CCCNC4)ncc3C(F)(F)F)c[nH]c2c1 (centres unmarked) [Compound 323] | 0.1 to 1 | 0.2 to 5 | < 0.02 | ≥ 5 | 0.2 to 5 |
| FC(F)(F)c1cnc(NC2CCCNC2)nc1-c1c[nH]c2cc(-c3cnccn3)ccc12 (centres unmarked) [Compound 328] | < 0.1 | 0.2 to 5 | < 0.02 | 0.2 to 5 | 0.2 to 5 |
| Cc1noc(C)c1-c1ccc2c(-c3nc(N[C@H]4CCCNC4)ncc3C(F)(F)F)c[nH]c2c1 [Compound 330] | < 0.1 | 0.2 to 5 | < 0.02 | 0.2 to 5 | 0.2 to 5 |
| FC(F)(F)c1cnc(N[C@H]2CCCNC2)nc1-c1c[nH]c2cc(-c3nccs3)ccc12 [Compound 332] | < 0.1 | 0.2 to 5 | < 0.02 | 0.2 to 5 | 0.2 to 5 |
| O=c1[nH]cc(-c2ccc3c(-c4nc(NC5CCCNC5)ncc4C(F)(F)F)c[nH]c3c2)c(=O)[nH]1 (centres unmarked) [Compound 333] | 1 to 5 | ≥ 5 | < 0.02 | ≥ 5 | 0.2 to 5 |
